Experimental data: patent US20050288273A1, “Antibacterial agents” (priority 2003, published 2005)
≈ marks a conversion by molar mass, not a printed value.

Experiments:
[1] = test system: E. coli Tol C; assay: Antibacterial assay (MIC), standard microtitration, Gram negative; assay type: cell-based; settings: for MIC: Escherichia coli, read-out: Minimum Inhibitory Concentrations E. coli Tol C
Source text: (§1) Test A—Antibacterial Assays

[2] = test system: H. influenzae HI3542; assay: as above; assay type: cell-based; settings: Gram negative bacteria; for MIC: Haemophilus influenzae, HI3542, read-out: Minimum Inhibitory Concentrations H. influenzae HI3542
Source text: as §1

[3] = test system: M. catarrhalis BC3534; assay: as above; assay type: cell-based; settings: Gram negative bacteria; for MIC: Moraxella catarrhalis, BC3534, read-out: Minimum Inhibitory Concentrations M. catarrhalis BC3534
Source text: as §1

[4] = test system: E. faecalis MGH-2; assay: Antibacterial assay (MIC), standard microtitration, Gram positive; assay type: cell-based; settings: Enterococcus faecalis, MGH2; Gram positive bacteria; read-out: Minimum Inhibitory Concentrations E. faecalis MGH-2
Source text: as §1

[5] = test system: S pyogenes C203; assay: as above; assay type: cell-based; settings: Gram positive bacteria; read-out: Minimum Inhibitory Concentrations S pyogenes C203
Source text: as §1

[6] = test system: S. aureus UC-76; assay: as above; assay type: cell-based; settings: Staphylococcus aureus, UC76; Gram positive bacteria; read-out: Minimum Inhibitory Concentrations S. aureus UC-76
Source text: as §1

## CCOC(=O)NC[C@H]1CN(c2ccc3c(c2)CCCc2cnoc2-3)C(=O)O1
other
  melting point: 181 to 183 °C

## O=C(CC1CC1)NC[C@H]1CN(c2ccc3c(c2)CCCc2cn[nH]c2-3)C(=O)O1
other
  melting point: 212 to 215 °C

## O=C1O[C@@H](COc2ccon2)CN1c1ccc2c(c1)CCCc1cn[nH]c1-2 [Example 158, (R)-5-(Isoxazol-3-yloxymethyl)-3-(1,4,5,6-tetrahydro-1,2-diaza-benzo[e]azulen-8-yl)-oxazolidin-2-one]
[1]
  MIC: > 64 µg/mL
[2]
  MIC: > 64 µg/mL
[3]
  MIC: 8 µg/mL (≈ 21.8 µM)
[4]
  MIC: 2 µg/mL (≈ 5.46 µM)
[5]
  MIC: 1 µg/mL (≈ 2.73 µM)
[6]
  MIC: 1 µg/mL (≈ 2.73 µM)

## O=C(CC(F)(F)F)NC[C@H]1CN(c2ccc3c(c2)CCCc2cnoc2-3)C(=O)O1
other
  melting point: 150 to 186 °C

## CC(=S)NC[C@H]1CN(c2ccc3c(c2)CCCc2cn[nH]c2-3)C(=O)O1
other
  melting point: 190 to 195 °C

## O=C(NC[C@H]1CN(c2ccc3c(c2)CCCc2cn[nH]c2-3)C(=O)O1)C(F)F
other
  melting point: 147 to 150 °C

## O=C(NC[C@H]1CN(c2ccc3c(c2)CCCc2cnoc2-3)C(=O)O1)c1ccccc1
other
  melting point: 240 to 245 °C

## O=C1O[C@@H](COc2ccon2)CN1c1ccc2c(c1)CCCc1cnoc1-2 [Example 159, (R)-3-(5,6-Dihydro-4H-1-oxa-2-aza-benzo[e]azulen-8-yl)-5-(isoxazol-3-yloxymethyl)-oxazolidin-2-one]
[4]
  MIC: 2 µg/mL (≈ 5.44 µM)
[5]
  MIC: 2 µg/mL (≈ 5.44 µM)
[6]
  MIC: 4 µg/mL (≈ 10.9 µM)

## CC(=O)NC[C@H]1CN(c2ccc3c(c2)CCCc2c(C)n[nH]c2-3)C(=O)O1 [Example 99, (S)-N-[3-(3-Methyl-1,4,5,6-tetrahydro-1,2-diaza-benzo[e]azulen-8-yl)-2-oxo-oxazolidin-5-ylmethyl]-acetamide]
[1]
  MIC: > 64 µg/mL
[2]
  MIC: 4 µg/mL (≈ 11.3 µM)
[3]
  MIC: 4 µg/mL (≈ 11.3 µM)
[4]
  MIC: 1 µg/mL (≈ 2.82 µM)
[5]
  MIC: 0.5 µg/mL (≈ 1.41 µM)
[6]
  MIC: 1 µg/mL (≈ 2.82 µM)

## O=C(NC[C@H]1CN(c2ccc3c(c2)CCCc2cnoc2-3)C(=O)O1)C(F)F
other
  melting point: 145 to 180 °C

## CCC(=O)NC[C@H]1CN(c2ccc3c(c2)CCCc2cn[nH]c2-3)C(=O)O1
other
  melting point: 233 to 235 °C

## O=C(NC[C@H]1CN(c2ccc3c(c2)CCCc2cnn(C(=O)c4ccccc4)c2-3)C(=O)O1)c1ccccc1
other
  melting point: 75 to 95 °C

## CC(=O)NC[C@H]1CN(c2ccc3c(c2)CCCc2c(-c4ccncc4)n[nH]c2-3)C(=O)O1 [Example 96, (S)-N-[2-Oxo-3-(3-pyridin-4-yl-1,4,5,6-tetrahydro-1,2-diaza-benzo[e]azulen-8-yl)-oxazolidin-5-ylmethyl]-acetamide]
[1]
  MIC: > 64 µg/mL
[2]
  MIC: 4 µg/mL (≈ 9.58 µM)
[3]
  MIC: 2 µg/mL (≈ 4.79 µM)
[4]
  MIC: 1 µg/mL (≈ 2.4 µM)
[5]
  MIC: 0.25 µg/mL (≈ 0.599 µM)
[6]
  MIC: 2 µg/mL (≈ 4.79 µM)

## CC(=O)NC[C@H]1CN(c2ccc3c(c2)CCCc2c(-c4ccccc4)n[nH]c2-3)C(=O)O1 [Example 98, (S)-N-[2-Oxo-3-(3-phenyl-1,4,5,6-tetrahydro-1,2-diaza-benzo[e]azulen-8-yl)-oxazolidin-5-ylmethyl]-acetamide]
[1]
  MIC: > 64 µg/mL
[2]
  MIC: 8 µg/mL (≈ 19.2 µM)
[3]
  MIC: 2 µg/mL (≈ 4.8 µM)
[4]
  MIC: 0.5 µg/mL (≈ 1.2 µM)
[5]
  MIC: 0.5 µg/mL (≈ 1.2 µM)
[6]
  MIC: 0.5 µg/mL (≈ 1.2 µM)

## O=C(CC(F)(F)F)NC[C@H]1CN(c2ccc3c(c2)CCCc2cn[nH]c2-3)C(=O)O1
other
  melting point: 243 to 245 °C

## O=C(NC[C@H]1CN(c2ccc3c(c2)CCCc2cn[nH]c2-3)C(=O)O1)c1ccccc1
other
  melting point: 105 to 125 °C

## (S)-N-[3-(2-Benzyl-2,4,5,6-tetrahydro-1,2-diaza-benzo[e]azulen-8-yl)-2-oxo-oxazolidin-5-ylmethyl]-acetamide and (S)-N-[3-(1-Benzyl-1,4,5,6-tetrahydro-1,2-diaza-benzo[e]azulen-8-yl)-2-oxo-oxazolidin-5-ylmethyl]-acetamide [Example 123]
[1]; Gram negative bacteria
  Minimum Inhibitory Concentrations E. coli Tol C: >64 µg/mL
[2]
  Minimum Inhibitory Concentrations H. influenzae HI3542: >64 µg/mL
[3]
  Minimum Inhibitory Concentrations M. catarrhalis BC3534: >64 µg/mL

## COC(=O)CC(=O)NC[C@H]1CN(c2ccc3c(c2)CCCc2cnoc2-3)C(=O)O1
other
  melting point: 205 to 217 °C

## O=C1O[C@@H](COc2ccccn2)CN1c1ccc2c(c1)CCCc1cnoc1-2 [Example 165, (R)-3-(5,6-Dihydro-4H-1-oxa-2-aza-benzo[e]azulen-8-yl)-5-(pyridin-2-yloxymethyl)-oxazolidin-2-one]
[1]
  MIC: > 64 µg/mL
[2]
  MIC: > 64 µg/mL
[3]
  MIC: > 64 µg/mL
[4]
  MIC: 4 µg/mL (≈ 10.6 µM)
[5]
  MIC: 2 µg/mL (≈ 5.3 µM)
[6]
  MIC: 4 µg/mL (≈ 10.6 µM)

## CC(C)C(=O)NC[C@H]1CN(c2ccc3c(c2)CCCc2cnoc2-3)C(=O)O1
other
  melting point: 187 to 193 °C

## O=C(NC[C@H]1CN(c2ccc3c(c2)CCCc2cnoc2-3)C(=O)O1)C1CC1
other
  melting point: 211 to 215 °C

## O=C(NC[C@H]1CN(c2ccc3c(c2)CCCc2cn[nH]c2-3)C(=O)O1)C1CC1
other
  melting point: 224 to 227 °C

## Br.CC(=O)NC[C@H]1CN(c2ccc3c(c2)CCCc2sc(N)nc2-3)C(=O)O1 [Example 186, (S)-N-[3-(2-Amino-5,6-dihydro-4H-3-thia-1-aza-benzo[e]azulen-8-yl)-2-oxo-oxazolidin-5-ylmethyl]-acetamide hydrobromic acid salt]
[1]
  MIC: > 64 µg/mL
[2]
  MIC: 4 µg/mL
[3]
  MIC: 8 µg/mL
[4]
  MIC: 1 µg/mL
[5]
  MIC: 1 µg/mL
[6]
  MIC: 2 µg/mL

## CC(=O)NC[C@H]1CN(c2ccc3c(c2)CCCc2c(C(F)(F)F)n[nH]c2-3)C(=O)O1 [Example 97, (S)-N-[2-Oxo-3-(3-trifluoromethyl-1,4,5,6-tetrahydro-1,2-diaza-benzo[e]azulen-8-yl)-oxazolidin-5-ylmethyl]-acetamide]
[1]
  MIC: > 64 µg/mL
[2]
  MIC: > 4 µg/mL
[3]
  MIC: 2 µg/mL (≈ 4.9 µM)
[4]
  MIC: 1 µg/mL (≈ 2.45 µM)
[5]
  MIC: 0.5 µg/mL (≈ 1.22 µM)
[6]
  MIC: 1 µg/mL (≈ 2.45 µM)

## O=C(CC1CCCC1)NC[C@H]1CN(c2ccc3c(c2)CCCc2cnn(C(=O)CC4CCCC4)c2-3)C(=O)O1
other
  melting point: 165 to 167 °C

## O=C1O[C@@H](COc2ccccn2)CN1c1ccc2c(c1)CCCc1cn[nH]c1-2 [Example 164, (R)-5-(Pyridin-2-yloxymethyl)-3-(1,4,5,6-tetrahydro-1,2-diaza-benzo[e]azulen-8-yl)-oxazolidin-2-one]
[1]
  MIC: > 64 µg/mL
[2]
  MIC: > 64 µg/mL
[3]
  MIC: > 64 µg/mL
[4]
  MIC: 4 µg/mL (≈ 10.6 µM)
[5]
  MIC: 2 µg/mL (≈ 5.31 µM)
[6]
  MIC: 4 µg/mL (≈ 10.6 µM)

## COC(=O)NC[C@H]1CN(c2ccc3c(c2)CCCc2cn[nH]c2-3)C(=O)O1
other
  melting point: 87 to 93 °C

## CC(=O)NC[C@H]1CN(c2ccc3c(c2)CCCc2cn(C)nc2-3)C(=O)O1 [Example 122, (S)-N-[3-(2-Methyl-2,4,5,6-tetrahydro-1,2-diaza-benzo[e]azulen-8-yl)-2-oxo-oxazolidin-5-ylmethyl]-acetamide]
[1]
  MIC: > 64 µg/mL
[2]
  MIC: > 64 µg/mL
[3]
  MIC: > 64 µg/mL
[4]
  MIC: 1 µg/mL (≈ 2.82 µM)
[5]
  MIC: 0.5 µg/mL (≈ 1.41 µM)
[6]
  MIC: 1 µg/mL (≈ 2.82 µM)

## Cl.NC[C@H]1CN(c2ccc3c(c2)CCCc2cn[nH]c2-3)C(=O)O1
other
  melting point: 201 to 223 °C

## CN(C)/C=C1/CCCc2cc(N3C[C@H](CNC(=O)OC(C)(C)C)OC3=O)ccc2C1=O (stereo in doubt)
other
  melting point: 157 to 160 °C

## COC(=O)NC[C@H]1CN(c2ccc3c(c2)CCCc2cnoc2-3)C(=O)O1
other
  melting point: 166 to 168 °C

## CCNC(=O)NC[C@H]1CN(c2ccc3c(c2)CCCc2cnoc2-3)C(=O)O1
other
  melting point: 193 to 196 °C

## CC(C)(C)OC(=O)NC[C@H]1CN(c2ccc3c(c2)CCCc2cnoc2-3)C(=O)O1
other
  melting point: 180 to 184 °C

## CCC(=O)NC[C@H]1CN(c2ccc3c(c2)CCCc2cnoc2-3)C(=O)O1
other
  melting point: 185 to 186 °C

## O=C(CC1CC1)NC[C@H]1CN(c2ccc3c(c2)CCCc2cnoc2-3)C(=O)O1
other
  melting point: 187 to 191 °C

## O=C(CC1CCCC1)NC[C@H]1CN(c2ccc3c(c2)CCCc2cn[nH]c2-3)C(=O)O1
other
  melting point: 205 to 208 °C

## CCOC(=O)NC[C@H]1CN(c2ccc3c(c2)CCCc2cn[nH]c2-3)C(=O)O1
other
  melting point: 122 to 126 °C

## CC(=S)NC[C@H]1CN(c2ccc3c(c2)CCCc2cnoc2-3)C(=O)O1
other
  melting point: 185 to 195 °C

## CC(=O)NC[C@H]1CN(c2ccc3c(c2)-c2oncc2CCC3)C(=O)O1 [Example 4, (S)-N-[3-(5,6-dihydro-4H-1-oxa-2-aza-benzo[e]azulen-9-yl)-2-oxo-oxazolidin-5-ylmethyl]acetamide]
[1]
  MIC: > 64 µg/mL
[2]
  MIC: 2 µg/mL (≈ 5.86 µM)
[3]
  MIC: 1 µg/mL (≈ 2.93 µM)
[4]
  MIC: 0.25 µg/mL (≈ 0.732 µM)
[5]
  MIC: 0.125 µg/mL (≈ 0.366 µM)
[6]
  MIC: 0.5 µg/mL (≈ 1.46 µM)

## O=C1O[C@@H](CNC(=O)C(F)(F)F)CN1c1ccc2c(c1)CCCc1cnoc1-2 (stereo in doubt)
other
  melting point: 203 to 205 °C

## Cl.NC[C@H]1CN(c2ccc3c(c2)CCCc2cnoc2-3)C(=O)O1
other
  melting point: 245 to 258 °C

## CC(C)C(=O)NC[C@H]1CN(c2ccc3c(c2)CCCc2cnn(C(=O)C(C)C)c2-3)C(=O)O1
other
  melting point: 75 to 80 °C

## CC(=O)NC[C@H]1CN(c2ccc3c(c2)CCCc2c-3nn(CCO)c2-c2ccncc2)C(=O)O1 [Example 209, (S)-N-{3-[2-(2-Hydroxy-ethyl)-3-pyridin-4-yl-2,4,5,6-tetrahydro-1,2-diaza-benzo[e]azulen-8-yl]-2-oxo-oxazolidin-5-ylmethyl}-acetamide]
[1]
  MIC: > 64 µg/mL
[2]
  MIC: 32 µg/mL (≈ 69.3 µM)
[3]
  MIC: > 64 µg/mL
[4]
  MIC: 8 µg/mL (≈ 17.3 µM)
[5]
  MIC: 4 µg/mL (≈ 8.67 µM)
[6]
  MIC: 16 µg/mL (≈ 34.7 µM)

## O=C(CC1CCCC1)NC[C@H]1CN(c2ccc3c(c2)CCCc2cnoc2-3)C(=O)O1
other
  melting point: 193 to 195 °C
